Each structure is given as a SMILES string. Converted amounts (≈) assume the structure as drawn. The source made the active and inactive calls. The calls are words filed in the database; no cut-off is given here.

Drawing on ChEMBL document CHEMBL1151613, “Potential anticancer agents XXXI. N-demethylation of fagaronine” (1984), this text covers EC50, Activity and T/C for six compounds.

Test [1] has as its system KB. Nature of the test: Cytotoxicity against human KB cells after 48 hrs. Format: functional. Conditions: read-out: ED50 (the source's name).
Test [2] relates to P388. Put plainly: Cytotoxicity against mouse P388 cells after 48 hrs. It is filed as functional. Particulars: P388, 48 h, read-out: ED50 (the source's name).
Test [3] relates to KB. Nature of the test: Cytotoxicity against human KB cells at 25 ug/ml after 48 hrs. It is filed as functional, cell-based.
Test [4] relates to P388. Put plainly: Cytotoxicity against mouse P388 cells at 25 ug/ml after 48 hrs. It is filed as functional, cell-based.
The nature of test [5]: In vivo antitumor activity against mouse CD8F1 cells at 125 mg/kg administered on day 24 relative to control. Format: functional.
Test [6] concerns MX1. Nature of the test: In vivo antitumor activity against human MX1 cells at 300 mg/kg relative to control on day 1, 5 and 9 relative to control. It is filed as functional.
The test system of test [7] is CX-1. Put plainly: In vivo antitumor activity against human CX-1 cells at 300 mg/kg administered on day 1, 5, 9 and 13 relative to control. Format: functional.
The subject of test [8] is L1210. Nature of the test: In vivo antitumor activity against mouse L1210 cells at 160 mg/kg administered on day 1 and 9 relative to control. It is filed as functional.
Test [9] relates to CX-1. Nature of the test: In vivo antitumor activity against human CX-1 cells at 75 mg/kg administered on day 1, 5,9 and 13 relative to control. It is filed as functional.
The test system of test [10] is P388. Nature of the test: In vivo antitumor activity against mouse P388 cells at 40 mg/kg administered on day 1, 5 and 9 relative to control. Format: functional.
In test [11] the test system is B16. Nature of the test: In vivo antitumor activity against mouse B16 cells at 200 mg/kg for 1 to 9 days relative to control. Format: functional.
Test [12] concerns P388. Put plainly: In vivo antitumor activity against mouse P388 cells at 160 mg/kg administered on day 1, 5 and 9 relative to control. It is filed as functional.
Test [13] concerns MC-38. Nature of the test: In vivo antitumor activity against mouse Colon 38 cells at 100 mg/kg administered on day 2 and 9 relative to control. It is filed as functional.
Test [14] deals with L1210. Put plainly: In vivo antitumor activity against mouse L1210 cells at 40 mg/kg administered on day 1 and 9 relative to control. It is filed as functional.
Test [15] concerns L1210. Put plainly: In vivo antitumor activity against mouse L1210 cells at 160 mg/kg administered on day 1, 5 and 9 relative to control. Format: functional.
In test [16] the test system is L1210. Nature of the test: In vivo antitumor activity against mouse L1210 cells at 80 mg/kg administered on day 1 and 9 relative to control. Format: functional.
For test [17], the system named is P388. Nature of the test: In vivo antitumor activity against mouse P388 cells at 50 mg/kg for 1 to 10 days relative to control. It is filed as functional.
Test [18] has as its system L1210. Nature of the test: In vivo antitumor activity against mouse L1210 cells at 40 mg/kg administered on day 1, 5 and 9 relative to control. It is filed as functional.
For test [19], the system named is B16. Put plainly: In vivo antitumor activity against mouse B16 cells at 50 mg/kg for 1 to 9 days relative to control. Format: functional.
Test [20] deals with Lewis lung carcinoma cell line. Put plainly: In vivo antitumor activity against mouse LLC cells at 50 mg/kg for 1 to 9 days relative to control. Format: functional.
For test [21], the system named is MX1. Nature of the test: In vivo antitumor activity against human MX1 cells at 150 mg/kg administered on day 1, 5 and 9 relative to control. Format: functional.
The subject of test [22] is LX-1. Nature of the test: In vivo antitumor activity against human LX1 cells at 300 mg/kg administered on day 1, 5 and 9 relative to control. Format: functional.
The test system of test [23] is Lewis lung carcinoma cell line. Put plainly: In vivo antitumor activity against mouse LLC cells at 100 mg/kg for 1 to 9 days relative to control. Format: functional.
The subject of test [24] is LX-1. Nature of the test: In vivo antitumor activity against human LX1 cells at 600 mg/kg administered on day 1, 5 and 9 relative to control. It is filed as functional.
In test [25] the test system is P388. Nature of the test: In vivo antitumor activity against mouse P388 cells at 40 mg/kg for 1 to 9 days relative to control. It is filed as functional.
The test system of test [26] is MC-38. Put plainly: In vivo antitumor activity against mouse Colon 38 cells at 50 mg/kg administered on day 2 and 9 relative to control. It is filed as functional.
Test [27] deals with CX-1. Nature of the test: In vivo antitumor activity against human CX-1 cells at 600 mg/kg administered on day 1, 5, 9 and 13 relative to control. It is filed as functional.
Test [28] concerns B16. Nature of the test: In vivo antitumor activity against mouse B16 cells at 100 mg/kg for 1 to 9 days relative to control. Format: functional.
A short description of test [29]: In vivo antitumor activity against mouse CD8F1 cells at 250 mg/kg administered on day 24 relative to control. It is filed as functional.
Test [30] concerns P388. Put plainly: In vivo antitumor activity against mouse P388 cells at 25 mg/kg for 1 to 10 days relative to control. Format: functional.
Test [31] concerns L1210. Nature of the test: In vivo antitumor activity against mouse L1210 cells at 320 mg/kg administered on day 1 and 9 relative to control. Format: functional.
Test [32] has as its system MX1. Put plainly: In vivo antitumor activity against human MX1 cells at 600 mg/kg administered on day 1, 5 and 9 relative to control. Format: functional.
Test [33] has as its system MX1. Nature of the test: In vivo antitumor activity against human MX1 cells at 1200 mg/kg administered on day 1, 5 and 9 relative to control. It is filed as functional.
Test [34] relates to Lewis lung carcinoma cell line. Put plainly: In vivo antitumor activity against mouse LLC cells at 25 mg/kg for 1 to 9 days relative to control. It is filed as functional.
Test [35] concerns Colon 26. Nature of the test: In vivo antitumor activity against mouse Colon 26 cells at 160 mg/kg administered on day 1, 5 and 9 relative to control. It is filed as functional.
For test [36], the system named is Colon 26. Put plainly: In vivo antitumor activity against mouse Colon 26 cells at 40 mg/kg administered on day 1, 5 and 9 relative to control. It is filed as functional.
Test [37] relates to LX-1. Put plainly: In vivo antitumor activity against human LX1 cells at 1200 mg/kg administered on day 1, 5 and 9 relative to control. Format: functional.
Test [38] deals with P388. Nature of the test: In vivo antitumor activity against mouse P388 cells at 160 mg/kg for 1 to 9 days relative to control. It is filed as functional.
In test [39] the test system is L1210. Put plainly: In vivo antitumor activity against mouse L1210 cells at 320 mg/kg administered on day 1, 5 and 9 relative to control. Format: functional.
Test [40] relates to P388. Put plainly: In vivo antitumor activity against mouse P388 cells at 80 mg/kg administered on day 1, 5 and 9 relative to control. Format: functional.
Test [41] deals with CX-1. Put plainly: In vivo antitumor activity against human CX-1 cells at 150 mg/kg administered on day 1, 5,9 and 13 relative to control. Format: functional.
In test [42] the test system is Colon 26. Put plainly: In vivo antitumor activity against mouse Colon 26 cells at 320 mg/kg administered on day 1, 5 and 9 relative to control. Format: functional.
The test system of test [43] is L1210. Nature of the test: In vivo antitumor activity against mouse L1210 cells at 80 mg/kg administered on day 1, 5 and 9 relative to control. It is filed as functional.
Test [44] concerns P388. Nature of the test: In vivo antitumor activity against mouse P388 cells at 80 mg/kg for 1 to 9 days relative to control. It is filed as functional.
For test [45], the system named is Colon 26. Put plainly: In vivo antitumor activity against mouse Colon 26 cells at 80 mg/kg administered on day 1, 5 and 9 relative to control. Format: functional.
Test [46] deals with P388. Nature of the test: In vivo antitumor activity against mouse P388 cells at 320 mg/kg administered on day 1, 5 and 9 relative to control. It is filed as functional.
Test [47] concerns P388. Nature of the test: In vivo antitumor activity against mouse P388 cells at 100 mg/kg for 1 to 10 days relative to control. It is filed as functional.
Test [48] is described as follows: In vivo antitumor activity against mouse CD8F1 cells at 1000 mg/kg administered on day 24 relative to control. It is filed as functional.
Test [49] relates to P388. Nature of the test: In vivo antitumor activity against mouse P388 cells at 320 mg/kg for 1 to 9 days relative to control. Format: functional.
Test [50] can be described thus: In vivo antitumor activity against mouse CD8F1 cells at 2000 mg/kg on day 24 relative to control. It is filed as functional.
Test [51] deals with Lewis lung carcinoma cell line. Put plainly: In vivo antitumor activity against mouse LLC cells at 200 mg/kg for 1 to 9 days relative to control. It is filed as functional.
Test [52] relates to LX-1. Put plainly: In vivo antitumor activity against human LX1 cells at 2400 mg/kg administered on day 1, 5 and 9 relative to control. Format: functional.
A short description of test [53]: In vivo antitumor activity against mouse CD8F1 cells at 500 mg/kg administered on day 24 relative to control. Format: functional.
Test [54] relates to MC-38. Put plainly: In vivo antitumor activity against mouse Colon 38 cells at 200 mg/kg administered on day 2 and 9 relative to control. It is filed as functional.

Turning to `COc1cc2c(cnc3c4cc(OC)c(OC(C)=O)cc4ccc23)cc1OC(C)=O`, the figures for the EC50 with KB [1] and with P388 [2] were 50 µg/mL (≈ 123 µM) and 12.5 µg/mL (≈ 30.8 µM), respectively.

As to `COc1cc2c(ccc3c4cc(OC)c(OC)cc4cnc23)cc1O`, the EC50 in the test on P388 [2] came to 36.5 µg/mL (≈ 109 µM). For the same compound, the result in the test on KB [3] was inactive.

As to `COc1cc2c(cnc3c4cc(OC)c(O)cc4ccc23)cc1O`, the figures for the EC50 in the test with KB [1] and with P388 [2] were 22.4 µg/mL (≈ 69.7 µM) and 13 µg/mL (≈ 40.5 µM), respectively.

For `COc1cc2cnc3c4cc(OC)c(OC(C)=O)cc4ccc3c2cc1OC`, the result with P388 [4] and with KB [3] was inactive.

Turning to `COc1cc2cnc3c4cc(OC)c(OC)cc4ccc3c2cc1OC`, the outcome with P388 [4] and in the test with KB [3] was inactive.

Take `COc1cc2c(ccc3c4cc(OC)c(OC)cc4c[n+](C)c23)cc1O.[Cl-]` [FAGARONINE]: the T/C in test [5] amounted to 137%; in the test with MX1 [6], 74%; in the test on CX-1 [7] it was 51%; in the test with L1210 [8], 145%; in the test on CX-1 [9], 49%; in the test on P388 [10], 190%. Further, the T/C in the test with B16 [11] is reported as 100%; in the test on P388 [12], 215%; in the test on MC-38 [13], 89%; in the test with L1210 [14] it was 137%; in the test with L1210 [15], 136%; with L1210 [16] it was 159%. The T/C with P388 [17] worked out at 210%; with L1210 [18] it was 143%; in the test on B16 [19] it was 108%; in [20], 113%; with MX1 [21] it was 83%; in the test with LX-1 [22] it was 107%. Also, the T/C stood at 125% in [23]; 79% with LX-1 [24]; 190% in the test on P388 [25]; 139% in the test on MC-38 [26]; 75% in the test with CX-1 [27]; 97% in the test on B16 [28]. Further, the T/C in test [29] stood at 190%; in the test with P388 [30] it was 90%; in the test on L1210 [31], 161%; with MX1 [32], 79%; in the test on MX1 [33], 68%; in test [34] it was 111%. The T/C in the test with Colon 26 [35] is recorded as 120%; in the test on Colon 26 [36] it was 117%; with LX-1 [37] it was 46%; with P388 [38], 270%; with L1210 [39] it was 137%; with P388 [40], 180%. The T/C came out at 42% in the test with CX-1 [41]; 138% in the test with Colon 26 [42]; 145% in the test with L1210 [43]; 210% in the test on P388 [44]; 121% in the test with Colon 26 [45]; 270% with P388 [46]. The T/C in the test on P388 [47] is on record as 265%; in test [48] it was 89%; in the test on P388 [49], 205%; in test [50], 121%; in [51] it was 134%; in the test on LX-1 [52], 65%. Moreover, the T/C came out at 134% in test [53] and 81% in the test on MC-38 [54]. Moreover, the EC50 in the test with KB [1] turned out to be 0.57 µg/mL; with P388 [2] it was 0.18 µg/mL.
